How the values were obtained:
[1] = molecular target: Mitogen-activated protein kinase 3 (Homo sapiens, UniProt P27361); experiment: DRUGMATRIX: Protein Serine/Threonine Kinase, ERK1 enzyme inhibition (substrate: Myelin Basic Protein); set-up: species or system Escherichia coli; settings: Not Active = under 50% inhibition at 10 µM
[2] = DRUGMATRIX: Phorbol Ester radioligand binding (ligand: [3H] PDBu); type: cell membranes, Mus musculus, ICR, Brain, Membrane; settings: Not Active = under 50% inhibition at 10 µM
[3] = molecular target: Kappa-type opioid receptor (Homo sapiens, UniProt P41145); experiment: DRUGMATRIX: Opiate kappa (OP2, KOP) radioligand binding (ligand: [3H] Diprenorphine); type: cell membranes, HEK293, Membrane; settings: hek293; Not Active = under 50% inhibition at 10 µM
Sequence of Kappa-type opioid receptor (P41145 whole entry): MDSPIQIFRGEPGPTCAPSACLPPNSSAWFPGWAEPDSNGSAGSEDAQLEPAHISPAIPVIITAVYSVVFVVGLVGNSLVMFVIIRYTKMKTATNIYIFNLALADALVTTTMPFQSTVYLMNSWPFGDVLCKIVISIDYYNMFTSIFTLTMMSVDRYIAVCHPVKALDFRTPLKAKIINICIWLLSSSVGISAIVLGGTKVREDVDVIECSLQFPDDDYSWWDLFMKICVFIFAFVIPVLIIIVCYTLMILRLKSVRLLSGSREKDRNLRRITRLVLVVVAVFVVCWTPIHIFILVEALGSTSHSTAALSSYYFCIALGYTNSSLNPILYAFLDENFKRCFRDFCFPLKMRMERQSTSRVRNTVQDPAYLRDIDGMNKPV

[4] = DRUGMATRIX: GABAA, Muscimol, Central radioligand binding (ligand: [3H] Muscimol); type: cell membranes, Rattus norvegicus, Wistar, Brain, Membrane; settings: Not Active = under 50% inhibition at 10 µM
[5] = DRUGMATRIX: Calcium Channel Type L, Phenylalkylamine radioligand binding (ligand: [3H] (-)-Desmethoxyverapamil (D-888)); type: cell membranes, Rattus norvegicus, Wistar, Brain, Membrane; settings: Not Active = under 50% inhibition at 10 µM
[6] = molecular target: T1, Receptor-type tyrosine-protein phosphatase C (Homo sapiens, UniProt P08575); set-up: species or system Escherichia coli;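 also: inhibition of CD45 enzyme activity measured using DiFMUP as substrate; in other assays of this panel Not Active means under 50% inhibition at 10 µM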
T1 sequence (P08575 whole entry): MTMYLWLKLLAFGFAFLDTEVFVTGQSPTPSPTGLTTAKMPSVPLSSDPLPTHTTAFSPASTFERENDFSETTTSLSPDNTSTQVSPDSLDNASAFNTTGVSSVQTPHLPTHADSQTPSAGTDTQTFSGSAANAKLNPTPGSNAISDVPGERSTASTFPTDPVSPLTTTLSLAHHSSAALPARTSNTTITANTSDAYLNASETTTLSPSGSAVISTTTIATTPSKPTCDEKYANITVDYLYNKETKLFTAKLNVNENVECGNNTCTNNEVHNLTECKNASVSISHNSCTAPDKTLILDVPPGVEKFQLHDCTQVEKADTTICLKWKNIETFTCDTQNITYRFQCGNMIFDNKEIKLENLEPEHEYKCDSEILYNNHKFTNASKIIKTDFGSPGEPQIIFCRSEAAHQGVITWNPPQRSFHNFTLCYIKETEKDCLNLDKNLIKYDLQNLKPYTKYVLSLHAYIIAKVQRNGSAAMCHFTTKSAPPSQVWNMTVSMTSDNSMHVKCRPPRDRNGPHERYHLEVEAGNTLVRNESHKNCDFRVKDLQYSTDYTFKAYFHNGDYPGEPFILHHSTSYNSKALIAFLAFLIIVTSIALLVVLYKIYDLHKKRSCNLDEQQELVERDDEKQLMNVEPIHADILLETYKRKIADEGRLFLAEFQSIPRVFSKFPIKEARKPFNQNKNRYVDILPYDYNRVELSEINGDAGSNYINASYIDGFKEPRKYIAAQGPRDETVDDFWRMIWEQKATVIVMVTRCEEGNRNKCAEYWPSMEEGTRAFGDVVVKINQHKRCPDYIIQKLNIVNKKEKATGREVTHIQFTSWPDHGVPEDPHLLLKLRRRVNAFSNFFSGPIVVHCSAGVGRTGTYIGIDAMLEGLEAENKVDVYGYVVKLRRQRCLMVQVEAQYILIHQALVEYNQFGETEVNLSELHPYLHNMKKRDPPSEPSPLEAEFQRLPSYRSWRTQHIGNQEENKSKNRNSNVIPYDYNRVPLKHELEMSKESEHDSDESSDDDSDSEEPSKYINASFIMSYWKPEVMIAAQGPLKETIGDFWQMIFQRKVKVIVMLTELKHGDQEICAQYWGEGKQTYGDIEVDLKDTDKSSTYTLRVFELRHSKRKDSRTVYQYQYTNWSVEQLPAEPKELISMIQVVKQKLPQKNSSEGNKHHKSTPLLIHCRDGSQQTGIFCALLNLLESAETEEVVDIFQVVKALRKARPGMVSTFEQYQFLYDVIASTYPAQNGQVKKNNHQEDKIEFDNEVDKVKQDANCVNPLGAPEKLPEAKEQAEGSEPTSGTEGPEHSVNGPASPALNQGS

[7] = molecular target: T2, Nitric oxide synthase, inducible (Mus musculus, UniProt P29477); set-up: species or system Escherichia coli;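 also: inhibition of iNOS enzyme activity measured with L-arginine as substrate; in other assays of this panel Not Active means under 50% inhibition at 10 µM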
T2 sequence (P29477 whole entry): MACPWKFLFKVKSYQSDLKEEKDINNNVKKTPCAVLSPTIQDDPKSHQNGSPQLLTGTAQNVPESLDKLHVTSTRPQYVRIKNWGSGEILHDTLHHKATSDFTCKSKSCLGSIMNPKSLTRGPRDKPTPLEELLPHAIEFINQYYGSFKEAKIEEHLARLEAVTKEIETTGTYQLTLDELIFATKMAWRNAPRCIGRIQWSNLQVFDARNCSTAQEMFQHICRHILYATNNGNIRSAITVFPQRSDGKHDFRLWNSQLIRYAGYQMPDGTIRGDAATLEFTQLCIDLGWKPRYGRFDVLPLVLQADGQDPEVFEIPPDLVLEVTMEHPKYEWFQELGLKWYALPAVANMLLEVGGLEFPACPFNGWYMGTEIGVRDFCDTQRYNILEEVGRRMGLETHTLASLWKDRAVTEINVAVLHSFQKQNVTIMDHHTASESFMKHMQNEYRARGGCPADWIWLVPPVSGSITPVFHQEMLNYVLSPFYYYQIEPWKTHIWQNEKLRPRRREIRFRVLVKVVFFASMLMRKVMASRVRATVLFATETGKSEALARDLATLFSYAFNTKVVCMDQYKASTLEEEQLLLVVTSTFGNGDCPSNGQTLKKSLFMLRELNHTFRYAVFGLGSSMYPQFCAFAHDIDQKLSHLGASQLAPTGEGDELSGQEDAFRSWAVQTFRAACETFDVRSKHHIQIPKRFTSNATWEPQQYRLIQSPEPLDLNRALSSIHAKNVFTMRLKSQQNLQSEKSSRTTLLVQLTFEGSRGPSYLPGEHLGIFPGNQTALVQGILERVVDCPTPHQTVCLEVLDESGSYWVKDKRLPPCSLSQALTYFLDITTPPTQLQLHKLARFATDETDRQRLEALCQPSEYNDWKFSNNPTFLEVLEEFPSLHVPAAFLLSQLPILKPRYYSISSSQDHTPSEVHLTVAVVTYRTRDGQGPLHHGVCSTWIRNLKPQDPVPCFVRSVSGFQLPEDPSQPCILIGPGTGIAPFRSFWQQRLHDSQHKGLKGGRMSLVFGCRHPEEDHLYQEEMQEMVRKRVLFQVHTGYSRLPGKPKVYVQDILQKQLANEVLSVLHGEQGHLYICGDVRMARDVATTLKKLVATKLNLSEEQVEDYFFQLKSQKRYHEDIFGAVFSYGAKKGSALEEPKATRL

[8] = DRUGMATRIX: Sodium/nucleoside co-transporter radioligand binding (ligand: nitrobenzylthioinosine); type: cell membranes, Cavia porcellus, Dunkin-Hartley, Cerebral cortex, Membrane; settings: Not Active = under 50% inhibition at 10 µM

Sequence of Mitogen-activated protein kinase 3 (P27361 whole entry): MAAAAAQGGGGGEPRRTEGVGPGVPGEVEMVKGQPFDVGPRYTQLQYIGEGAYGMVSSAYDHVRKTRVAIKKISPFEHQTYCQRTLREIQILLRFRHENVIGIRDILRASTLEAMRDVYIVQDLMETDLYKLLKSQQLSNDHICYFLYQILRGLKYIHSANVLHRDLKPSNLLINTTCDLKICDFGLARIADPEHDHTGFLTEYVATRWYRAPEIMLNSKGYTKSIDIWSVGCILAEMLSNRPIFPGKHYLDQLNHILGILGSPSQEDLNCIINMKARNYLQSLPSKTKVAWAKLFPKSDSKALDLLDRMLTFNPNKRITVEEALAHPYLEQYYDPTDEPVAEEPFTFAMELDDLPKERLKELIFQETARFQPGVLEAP

O=C1CC2(CCCC2)CC(=O)N1CCCCN1CCN(c2ncccn2)CC1 [BUSPIRONE]
Not Active: IC50 [1] | IC50 [2] | Ki [2] | IC50 [3] | IC50 [4] | Ki [4] | IC50 [5] | Ki [5] | IC50 [6] | IC50 [7] | IC50 [8] | Ki [8]

O=NN(CCCl)C(=O)NCCCl [CARMUSTINE]
Not Active: IC50 [1] | IC50 [2] | Ki [2] | IC50 [3] | IC50 [4] | Ki [4] | IC50 [5] | Ki [5] | IC50 [6] | IC50 [7] | IC50 [8] | Ki [8]

CC1=C(C(=O)O)N2C(=O)[C@@H](NC(=O)[C@H](N)c3ccccc3)[C@H]2SC1 [CEPHALEXIN ANHYDROUS]
Not Active: IC50 [1] | IC50 [2] | Ki [2] | IC50 [3] | IC50 [4] | Ki [4] | IC50 [5] | Ki [5] | IC50 [6] | IC50 [7] | IC50 [8] | Ki [8]

O=C(N[C@H](CO)[C@H](O)c1ccc([N+](=O)[O-])cc1)C(Cl)Cl [CHLORAMPHENICOL]
Not Active: IC50 [1] | IC50 [2] | Ki [2] | IC50 [3] | IC50 [4] | Ki [4] | IC50 [5] | Ki [5] | IC50 [6] | IC50 [7] | IC50 [8] | Ki [8]

ClC(Cl)Cl [CHLOROFORM]
Not Active: IC50 [1] | IC50 [2] | Ki [2] | IC50 [3] | IC50 [4] | Ki [4] | IC50 [5] | Ki [5] | IC50 [6] | IC50 [7] | IC50 [8] | Ki [8]

C=C1CC[C@H](O)C/C1=C/C=C1\CCC[C@]2(C)[C@@H]([C@H](C)CCCC(C)C)CC[C@@H]12 [CHOLECALCIFEROL]
Not Active: IC50 [1] | IC50 [2] | Ki [2] | IC50 [3] | IC50 [4] | Ki [4] | IC50 [5] | Ki [5] | IC50 [6] | IC50 [7] | IC50 [8] | Ki [8]

C[N+](C)(C)CCO.[Cl-] [CHOLINE CHLORIDE]
Not Active: IC50 [1] | IC50 [2] | Ki [2] | IC50 [3] | IC50 [4] | Ki [4] | IC50 [5] | Ki [5] | IC50 [6] | IC50 [7] | IC50 [8] | Ki [8]

— ChEMBL document CHEMBL1909046, “DrugMatrix in vitro pharmacology data”
